Among the data in ChEMBL document CHEMBL1156829 (Proc Natl Acad Sci U S A, 2008) are EC50 and CC50 values, retold here.

Each structure is given as a SMILES string. Some results are limits rather than exact numbers.

For series [1], the system named is Plasmodium falciparum. Put plainly: NOVARTIS: Inhibition of Plasmodium falciparum W2 (drug-resistant) proliferation in erythrocyte-based infection assay. The note with it: Plasmodium falciparum, W2; read-out: EC50. Type of series: functional, organism-based.
The test system of series [2] is Plasmodium falciparum. In words: NOVARTIS: Inhibition of Plasmodium falciparum 3D7 (drug-susceptible) proliferation in erythrocyte-based infection assay. It counts as functional, organism-based. As to conditions: Plasmodium falciparum, 3D7.
Series [3] in a line: NOVARTIS: Cytotoxicity against human hepatocellular carcinoma cell line (Huh7). Type of series: toxicity, cell-based, Huh-7. As to conditions: Huh7 cells (hepatocellular carcinoma cell line).

By EC50 is commonly meant the concentration needed to bring the measured effect to its halfway point. For orientation: CC50 means the concentration giving 50% cytotoxicity. A high value points to better tolerance by the cells. Turning to `Nc1c(Cl)c(Cl)nc(C(Cl)(Cl)Cl)c1Cl`, the EC50 with Plasmodium falciparum [1] was 286 nM; in the series on Plasmodium falciparum [2], 448 nM. This molecule returned a half-maximal cytotoxic concentration (CC50) in series [3] greater than 100000 nM.

For `CC(=O)Nc1nc(C)c(-c2csc(Nc3ccc(Cl)cc3)n2)s1`, the concentration giving a half-maximal response (EC50) in the series on Plasmodium falciparum [1] was determined as 97.8 nM; in the series on Plasmodium falciparum [2], 140 nM. This molecule had a CC50 in series [3] of 34400 nM.

With `COC(=O)c1ccc(C2C3=C(O)CC(c4ccc(F)cc4)CC3=Nc3ccccc3N2C(=O)c2ccccc2)cc1` (configuration not stated), the EC50 in the series with Plasmodium falciparum [1] is 290 nM; in the series on Plasmodium falciparum [2], 332 nM. For the same molecule, the CC50 in series [3] is greater than 100000 nM.

With `COc1ccc(C(c2ccc(N(C)C)cc2)c2ccc(N(C)C)cc2)cc1`, the EC50 is 277 nM in the series on Plasmodium falciparum [1] and 353 nM in the series with Plasmodium falciparum [2]. In addition, the 50% cytotoxic concentration (CC50) in series [3] was greater than 100000 nM.

With `COc1cc(C(=O)N2N=C(c3c(-c4ccccc4)c4cc(Br)ccc4[nH]c3=O)CC2c2cccc([N+](=O)[O-])c2)cc(OC)c1OC` (configuration not stated), the values for the half-maximal effective concentration (EC50) in the series on Plasmodium falciparum [1] and in the series with Plasmodium falciparum [2] were 288 nM and 362 nM, respectively. In series [3], this molecule displayed a CC50 greater than 100000 nM.

In the case of `C(=NNc1nc2ccccc2[nH]1)c1ccc2c(c1)OCO2`, the EC50 in the series with Plasmodium falciparum [1] was found to be 289 nM; in the series on Plasmodium falciparum [2] it was 184 nM. In series [3], this molecule had a CC50 greater than 100000 nM.

For the molecule `CCOC(=O)C1=C(C)NC2=C(C(=O)CC(C)(C)C2)C1c1cc(I)sc1SC` (configuration not stated), the concentration giving a half-maximal response (EC50) amounted to 287 nM in the series on Plasmodium falciparum [1] and 798 nM in the series on Plasmodium falciparum [2]. The molecule also had a half-maximal cytotoxic concentration (CC50) in series [3] greater than 100000 nM.

Regarding `O=C(/C=C/c1c[nH]cn1)N1CCC(n2c(CC3CCCC3)nc3cccnc32)CC1`, the concentration for a half-maximal effect (EC50) is 28.7 nM with Plasmodium falciparum [1] and greater than 1670 nM in the series on Plasmodium falciparum [2]. In series [3], the CC50 was greater than 10000 nM.

For the molecule `Cc1ccn2c(NC(C)(C)CC(C)(C)C)c(-c3ccccc3OC(=O)N(C)C)nc2c1`, the EC50 with Plasmodium falciparum [1] turned out to be 28.5 nM; in the series on Plasmodium falciparum [2], 576 nM. The molecule also showed a 50% cytotoxic concentration (CC50) in series [3] greater than 10000 nM.

On to `CCc1ccccc1NC(=O)C1c2ccccc2C(=O)N(CC(C)C)C1c1cccs1` (configuration not stated), for which the EC50 in the series with Plasmodium falciparum [1] is 270 nM; in the series with Plasmodium falciparum [2], 364 nM. The half-maximal cytotoxic concentration (CC50) in series [3] is greater than 97200 nM.

As for `COc1ccc(NC2=C(N3CCCCC3)C(=O)c3ccccc3C2=O)cc1`, the results for the EC50 in the series with Plasmodium falciparum [1] and with Plasmodium falciparum [2] were 35 nM and 33.1 nM, respectively. For the same molecule, in series [3], the cytotoxic concentration (CC50) was 12600 nM.

Turning to `COc1ccc(C2CC(=O)C3=C(C2)NC(C)=C(C(=O)OC2CCCCC2)C3c2cccc(C)c2)cc1OC` (configuration not stated), the EC50 with Plasmodium falciparum [1] came to 281 nM; with Plasmodium falciparum [2], 837 nM. Besides, in series [3], the CC50 was greater than 100000 nM.

Regarding `CCOC(=O)c1cnc2ccc(Cl)cc2c1NCCCN(C)C`, the concentration for a half-maximal effect (EC50) worked out at 135 nM in the series on Plasmodium falciparum [1] and 826 nM in the series with Plasmodium falciparum [2]. In addition, the 50% cytotoxic concentration (CC50) in series [3] is 48200 nM.

`CC1=CC(=Cc2sc3ccccc3[n+]2C)C=C(C)O1`: the values for the EC50 in the series on Plasmodium falciparum [1] and in the series with Plasmodium falciparum [2] were 23.7 nM and 31.3 nM, respectively. Besides, the cytotoxic concentration (CC50) in series [3] was 8350 nM.

As to `COc1ccc(C2CC(=O)C3=C(C2)NC(C)=C(C(=O)OC(C)C)C3c2cccc(Br)c2)cc1OC` (configuration not stated), the concentration for a half-maximal effect (EC50) in the series on Plasmodium falciparum [1] was 41.6 nM; in the series on Plasmodium falciparum [2], 234 nM. In series [3], this molecule displayed a 50% cytotoxic concentration (CC50) of 14700 nM.

As to `COc1cc2c(OC3OCC(OC)C(OC)C3O)c3c(c(-c4ccc5c(c4)OCO5)c2cc1OC)C(=O)OC3` (configuration not stated), the 50% effective concentration (EC50) turned out to be 28.3 nM in the series on Plasmodium falciparum [1] and 81.7 nM in the series with Plasmodium falciparum [2]. In series [3], this molecule gave a CC50 greater than 10000 nM.

As to `O=C(Nc1ccc(C(=O)Nc2ccc(C3=NCCCN3)cc2)cc1)Nc1ccc(C2=NCCCN2)cc1`, the EC50 worked out at 20.4 nM with Plasmodium falciparum [1] and 34.4 nM in the series on Plasmodium falciparum [2]. Also, the CC50 in series [3] is greater than 7280 nM.

As for `O=C(NC1CCN(Cc2ccccc2)CC1)c1cc(-c2ccc(F)cc2)cc(-n2cnnn2)c1`, the 50% effective concentration (EC50) with Plasmodium falciparum [1] and with Plasmodium falciparum [2] was 126 nM in each case. Moreover, the 50% cytotoxic concentration (CC50) in series [3] came to 45000 nM.

With `COc1ccc(-c2cc(C(F)(F)F)n3ncc(C(=O)Nc4cccc(Cl)c4Cl)c3n2)cc1OC`, the EC50 in the series on Plasmodium falciparum [1] was 275 nM; with Plasmodium falciparum [2], 2610 nM. For the same molecule, in series [3], the CC50 is greater than 100000 nM.

`Oc1ccc(-c2ccc3c(c2)OCO3)cc1CNCC1CC2C=CC1C21CC1` (configuration not stated): the concentration for a half-maximal effect (EC50) was found to be 274 nM in the series with Plasmodium falciparum [1] and 1110 nM in the series with Plasmodium falciparum [2]. Besides, the 50% cytotoxic concentration (CC50) in series [3] was greater than 100000 nM.

Turning to `CCOC(=O)c1ccc(OCC2c3cc(OC)c(OC)cc3CCN2C(=O)Nc2ccc(Cl)cc2)cc1` (configuration not stated), the half-maximal effective concentration (EC50) was determined as 292 nM in the series with Plasmodium falciparum [1] and 1970 nM in the series with Plasmodium falciparum [2]. In series [3], the 50% cytotoxic concentration (CC50) is greater than 100000 nM.

With `Oc1ccc(C2Nc3ccc4ccccc4c3C3C=CCC32)cc1` (configuration not stated), the concentration giving a half-maximal response (EC50) in the series with Plasmodium falciparum [1] is 292 nM; in the series on Plasmodium falciparum [2], 812 nM. The same molecule came in with a CC50 in series [3] greater than 100000 nM.

Regarding `Clc1ccc(C[n+]2cc(-c3ccccc3)n3c2CCC3)cc1Cl`, the figures for the EC50 with Plasmodium falciparum [1] and in the series on Plasmodium falciparum [2] were 158 nM and 499 nM, respectively. The molecule also had a CC50 in series [3] greater than 55700 nM.

On to `Oc1ccc(-c2ccccc2)cc1CNCCCN1CCOCC1`, for which the results for the concentration giving a half-maximal response (EC50) in the series with Plasmodium falciparum [1] and with Plasmodium falciparum [2] were 28.4 nM and 706 nM, respectively. This molecule also came in with a CC50 in series [3] greater than 10000 nM.

Consider `COc1ccc(CNC2CCN(Cc3ccccc3)CC2)cc1OCc1ccccc1`, for which the EC50 amounted to 27.9 nM in the series on Plasmodium falciparum [1] and 1030 nM in the series on Plasmodium falciparum [2]. In addition, the CC50 in series [3] is greater than 10000 nM.

As to `CCOc1cc(-c2nc3c(=O)n(C)c(=O)nc-3n(C)n2)ccc1OC(C)C`, the 50% effective concentration (EC50) in the series with Plasmodium falciparum [1] came to 29.3 nM; in the series on Plasmodium falciparum [2] it was 333 nM. Moreover, the CC50 in series [3] was greater than 10000 nM.

As to `Cc1ccc(C2CC(C(F)(F)F)n3ncc(C(=O)Nc4ccc(OC(F)(F)F)cc4)c3N2)cc1` (configuration not stated), the results for the concentration giving a half-maximal response (EC50) in the series on Plasmodium falciparum [1] and in the series on Plasmodium falciparum [2] were 293 nM and 282 nM, respectively. Also, in series [3], the cytotoxic concentration (CC50) is greater than 100000 nM.

`Oc1c(C(Nc2ccccn2)c2ccc(Br)cc2)ccc2cccnc12` (configuration not stated): the concentration for a half-maximal effect (EC50) was 284 nM in the series on Plasmodium falciparum [1] and 358 nM in the series on Plasmodium falciparum [2]. For the same molecule, the CC50 in series [3] was greater than 100000 nM.

`COc1ccc(C2=C(Nc3ccc(C)c(C)c3)c3ccccc3C2=O)cc1`: the values for the concentration giving a half-maximal response (EC50) with Plasmodium falciparum [1] and with Plasmodium falciparum [2] were 281 nM and 297 nM, respectively. This molecule showed a half-maximal cytotoxic concentration (CC50) in series [3] greater than 100000 nM.

Consider `CCc1c(C(C)S(=O)(=O)c2ccc(C)cc2)[nH]c(=O)n1-c1ccc(OC(F)(F)F)cc1` (configuration not stated), for which the EC50 was 16.2 nM with Plasmodium falciparum [1] and 47.8 nM in the series with Plasmodium falciparum [2]. Also, half-maximal cytotoxicity in series [3] (CC50) was put at 5750 nM.

On to `Cc1ccc(NC(=O)c2c(I)cnn2C)cc1[N+](=O)[O-]`, for which the concentration giving a half-maximal response (EC50) was 280 nM with Plasmodium falciparum [1] and 192 nM in the series with Plasmodium falciparum [2]. In addition, the CC50 in series [3] is greater than 100000 nM.

On to `COc1ccc2c(c1)C=C([C@@H]1C[C@H]3CN(c4ccccc4)C(=O)[C@]34CCCN14)CO2`, for which the EC50 stood at 289 nM in the series with Plasmodium falciparum [1] and 588 nM in the series on Plasmodium falciparum [2]. The molecule also came in with a half-maximal cytotoxic concentration (CC50) in series [3] greater than 100000 nM.

In the case of `Clc1ccc2c(c1)CN(C1CCCCC1)CO2`, the EC50 came to 200 nM with Plasmodium falciparum [1] and 2300 nM with Plasmodium falciparum [2]. In series [3], this molecule showed a 50% cytotoxic concentration (CC50) of 71000 nM.

`Cc1ccccc1Cc1c(C)nc2c(C#N)c(C)nn2c1C`: the EC50 in the series on Plasmodium falciparum [1] turned out to be 273 nM; in the series on Plasmodium falciparum [2], 282 nM. Also, in series [3], the cytotoxic concentration (CC50) was greater than 100000 nM.

With `CCOc1cc(C2C(C(=O)OC)=CNC=C2C(=O)OC)cc(Br)c1OCC`, the EC50 with Plasmodium falciparum [1] came out at 277 nM; in the series on Plasmodium falciparum [2], 388 nM. Also, in series [3], the CC50 is greater than 100000 nM.

Consider `CCOc1cc(C2CC(=O)NC3=C2C(=O)CC(c2ccc(OC)cc2)C3)cc(Cl)c1O` (configuration not stated), for which the values for the EC50 in the series on Plasmodium falciparum [1] and in the series with Plasmodium falciparum [2] were 285 nM and 612 nM, respectively. In series [3], this molecule yielded a 50% cytotoxic concentration (CC50) greater than 100000 nM.

Consider `CC(C)c1cccc(C(C)C)c1NC(=O)N(Cc1ccccc1)C(C)c1nc2ccccc2c(=O)n1-c1ccc(Br)cc1` (configuration not stated), for which the values for the EC50 in the series with Plasmodium falciparum [1] and with Plasmodium falciparum [2] were 28 nM and 1320 nM, respectively. In addition, in series [3], the CC50 is greater than 10000 nM.

On to `Cc1ccccc1Cn1c(=N)n(CC(O)c2ccc(Cl)c(Cl)c2)c2ccccc21` (configuration not stated), for which the figures for the EC50 in the series on Plasmodium falciparum [1] and in the series with Plasmodium falciparum [2] were 38.4 nM and 135 nM, respectively. In addition, the cytotoxic concentration (CC50) in series [3] is 13300 nM.

As for `CC(=O)N(C1=C(N2CCCC2)C(=O)c2ccccc2C1=O)c1ccccc1C`, the results for the EC50 in the series on Plasmodium falciparum [1] and in the series on Plasmodium falciparum [2] were 31.9 nM and 83.9 nM, respectively. The same molecule registered a CC50 in series [3] of 11500 nM.
